Test results from PMC10051969, “Exploring Probenecid Derived 1,3,4-Oxadiazole-Phthalimide Hybrid as α-Amylase Inhibitor: Synthesis, Structural Investigation, and Molecular Modeling” (Pharmaceuticals, 2023).
Values after ≈ are worked out from the molar mass of the structure shown.

Molecular target: α-amylase
Assay: DNS colorimetric α-amylase assay, starch substrate, absorbance at […] nm
Assay type: biochemical

CCCN(CCC)S(=O)(=O)c1ccc(-c2nnc(SCN3C(=O)c4ccccc4C3=O)o2)cc1 [PESMP, 4-(5-((1,3-Dioxoisoindolin-2-yl)methylthio)-1,3,4-oxadiazol-2-yl)-N,N-dipropylbenzene-sulfonamide]
IC50 Value: 10.60 ± 0.16 µg/mL (≈ 21.2 µM)
